Assay results taken from patent publication US20080269267A1, “KINASE INHIBITORS USEFUL FOR THE TREATMENT OF MYLEOPROLIFIC DISEASES AND OTHER PROLIFERATIVE DISEASES” (Deciphera Pharmaceuticals, LLC, priority 2007, published 2008).
Positions count from the first letter of the chain named. pIC50: −log10 of the molar value.

Legend:
Abl kinase (SEQ ID NO:1) = target: T1, Abl kinase (SEQ ID NO:1) (Homo sapiens, UniProt P00519); experiment: Abl kinase assay (pyruvate kinase/lactate dehydrogenase coupled, ADP production); conditions: 2 h preincubation at 30° C., ATP 500 μM; read-out: Abl Enzyme Assay, biochemical IC50
T1 construct: purchased deCode Genetics
T1 sequence (P00519 with tags, fused parts or gaps): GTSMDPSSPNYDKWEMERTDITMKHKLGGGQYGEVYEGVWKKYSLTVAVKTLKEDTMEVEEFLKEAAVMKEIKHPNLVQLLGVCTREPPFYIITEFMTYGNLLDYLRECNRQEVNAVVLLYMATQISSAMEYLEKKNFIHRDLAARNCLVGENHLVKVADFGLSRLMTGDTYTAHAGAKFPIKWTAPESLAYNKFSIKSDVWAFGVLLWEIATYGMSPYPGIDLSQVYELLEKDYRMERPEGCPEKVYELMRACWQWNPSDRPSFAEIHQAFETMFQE
Protocol: Abl Kinase (SEQ ID NO:1) Assay
Activity of Abl kinase (SEQ ID NO:1) was determined by following the production of ADP from the kinase reaction through coupling with the pyruvate kinase/lactate dehydrogenase system (e.g., Schindler, et al. Science (2000) 289, 1938-1942). In this assay, the oxidation of NADH (thus the decrease at A340nm) was continuously monitored spectrophometrically. The reaction mixture (100 μl) contained Abl kinase (1 nM. Abl from deCode Genetics), peptide substrate (EAIYAAPFAKKK. 0.2 mM), MgCl2 (10 mM), pyruvate kinase (4 units), lactate dehydrogenase (0.7 units), phosphoenol pyruvate (1 mM), and NADH (0.28 mM) in 90 mM Tris buffer containing 0.2% octyl-glucoside and 3.5% DMSO, pH 7.5. Test compounds were incubated with Abl (SEQ ID NO:1) and other reaction reagents at 30° C. for 2 h before ATP (500 μM) was added to start the reaction. The absorption at 340 nm was monitored continuously for 2 hours at 30° C. on Polarstar Optima plate reader (BMG). The reaction rate was calculated using the 1.0 to 2.0 h time frame. Percent inhibition was obtained by comparison of reaction rate with that of a control (i.e. with no test compound). IC50 values were calculated from a series of percent inhibition values determined at a range of inhibitor concentrations using software routines as implemented in the GraphPad Prism software package.

[1] = target: T2, T315I Abl kinase (SEQ ID NO:2) (Homo sapiens, UniProt P00519, T315I); experiment: T315I Abl kinase assay (pyruvate kinase/lactate dehydrogenase coupled); conditions: 1 h preincubation at 30° C., ATP 500 μM; read-out: Abl T315l Enzyme Assay, biochemical IC50
T2 construct: purchased deCode Genetics
T2 sequence (P00519 with tags, fused parts or gaps T315I): T1 sequence (P00519 with tags, fused parts or gaps) with T94I
Protocol: Abl Kinase (SEQ ID NO:2) Assay
Activity of T315I Abl kinase (SEQ ID NO:2) was determined by following the production of ADP from the kinase reaction through coupling with the pyruvate kinase/lactate dehydrogenase system (e.g., Schindler, et al. Science (2000) 289, 1938-1942). In this assay, the oxidation of NADH (thus the decrease at A340nm) was continuously monitored spectrophometrically. The reaction mixture (100 μl) contained Abl kinase (4.4 nM. […] Abl from deCode Genetics), peptide substrate (EAIYAAPFAKKK, 0.2 mM), MgCl2 (10 mM), pyruvate kinase (4 units), lactate dehydrogenase (0.7 units), phosphoenol pyruvate (1 mM), and NADH (0.28 mM) in 90 mM Tris buffer containing 0.2% octyl-glucoside and 1% DMSO, pH 7.5. Test compounds were incubated with T315I Abl (SEQ ID NO:2) and other reaction reagents at 30° C. for 1 h before ATP (500 μM) was added to start the reaction. The absorption at 340 nm was monitored continuously for 2 hours at 30° C. on Polarstar Optima plate reader (BMG). The reaction rate was calculated using the 1.0 to 2.0 h time frame. Percent inhibition was obtained by comparison of reaction rate with that of a control (i.e. with no test compound). IC50 values were calculated from a series of percent inhibition values determined at a range of inhibitor concentrations using software routines as implemented in the GraphPad Prism software package.

[2] = target: T3, C-Met kinase (SEQ ID NO:10) (Homo sapiens, UniProt P08581); experiment: C-Met kinase assay (pyruvate kinase/lactate dehydrogenase coupled); conditions: 0.5 h preincubation at 22° C., ATP 100 μM; read-out: c-Met Enzyme Assay, biochemical IC50
T3 construct: purchased Invitrogen PV3143
Protocol: C-Met Kinase (SEQ ID NO:10) Assay
Activity of C-Met kinase (SEQ ID NO:10) was determined by following the production of ADP from the kinase reaction through coupling with the pyruvate kinase/lactate dehydrogenase system (e.g., Schindler, et al. Science (2000) 289, 1938-1942). In this assay, the oxidation of NADH (thus the decrease at A340 nm) was continuously monitored spectrophometrically. The reaction mixture (100 μl) contained C-Met (c-Met residues; 956-1390, from Invitrogen, catalogue #PV3143, 6 nM), polyE4Y (1 mg/ml), MgCl2 (10 mM), pyruvate kinase (4 units), lactate dehydrogenase (0.7 units), phosphoenol pyruvate (1 mM), and NADH (0.28 mM) in 90 mM Tris buffer containing 0.25 mM DTT, 0.2% octyl-glucoside and 1% DMSO, pH 7.5. Test compounds were incubated with C-Met (SEQ ID NO:10) and other reaction reagents at 22° C. for 0.5 h before ATP (100 μM) was added to start the reaction. The absorption at 340 n=was monitored continuously for 2 hours at 30° C. on Polarstar Optima plate reader (BMG). The reaction rate was calculated using the 1.0 to 2.0 h time frame. Percent inhibition was obtained by comparison of reaction rate with that of a control (i.e. with no test compound). IC50 values were calculated from a series of percent inhibition values determined at a range of inhibitor concentrations using software routines as implemented in the GraphPad Prism software package.

T3 sequence (P08581 with tags, fused parts or gaps): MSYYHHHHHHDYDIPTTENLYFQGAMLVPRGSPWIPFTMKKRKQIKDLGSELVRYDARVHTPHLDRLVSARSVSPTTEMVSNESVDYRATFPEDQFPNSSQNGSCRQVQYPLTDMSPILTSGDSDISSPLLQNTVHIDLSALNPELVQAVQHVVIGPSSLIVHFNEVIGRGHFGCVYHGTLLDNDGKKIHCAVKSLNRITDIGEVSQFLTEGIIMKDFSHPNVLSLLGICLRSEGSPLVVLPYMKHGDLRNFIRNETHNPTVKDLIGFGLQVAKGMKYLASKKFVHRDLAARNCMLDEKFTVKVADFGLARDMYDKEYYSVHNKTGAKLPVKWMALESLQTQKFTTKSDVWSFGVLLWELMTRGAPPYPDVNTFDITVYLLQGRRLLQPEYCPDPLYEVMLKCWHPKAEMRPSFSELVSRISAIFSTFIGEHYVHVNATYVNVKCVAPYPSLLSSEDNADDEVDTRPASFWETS

pIC50 (Abl kinase (SEQ ID NO:1)) | pIC50 [1] | pIC50 [2] | Compound
> 7.00 | > 7.00 | > 7.00 | Cn1cc(-c2cc(Oc3ccc(NC(=O)Nc4cc(C(C)(C)C)nn4-c4cccc(CO)c4)c(F)c3)ccn2)cn1 [Example 7, 1-(3-tert-butyl-1-(3-(hydroxymethyl)phenyl)-1H-pyrazol-5-yl)-3-(2-fluoro-4-(2-(1-methyl-1H-pyrazol-4-yl)pyridin-4-yloxy)phenyl)urea p-toluenesulfonic acid]
> 7.00 | > 7.00 | > 7.00 | Cn1cc(-c2cc(Oc3ccc(NC(=O)Nc4cc(C(C)(C)C)nn4-c4ccc(CO)cc4)c(F)c3)ccn2)cn1 [Example 8, 1-(3-tert-butyl-1-(4-(hydroxymethyl)phenyl)-1H-pyrazol-5-yl)-3-(2-fluoro-4-(2-(1-methyl-1H-pyrazol-4-yl)pyridin-4-yloxy)phenyl)urea]
> 7.00 | > 7.00 | > 7.00 | CC(C)c1cc(NC(=O)Nc2ccc(Oc3ccnc(-c4cnn(C)c4)c3)c(F)c2F)n(-c2cccc(C#N)c2)n1 [Example 13, 1-(1-(3-cyanophenyl)-3-isopropyl-1H-pyrazol-5-yl)-3-(2,3-difluoro-4-(2-(1-methyl-1H-pyrazol-4-yl)pyridin-4-yloxy)phenyl)urea]
> 7.00 | > 7.00 | > 6.00 | CCc1cc(NC(=O)Nc2ccc(Oc3ccnc(-c4cnn(C(C)C)c4)c3)cc2F)n(-c2cccc(C#N)c2)n1 [Example 17, 1-(1-(3-cyanophenyl)-3-ethyl-1H-pyrazol-5-yl)-3-(2-fluoro-4-(2-(1-isopropyl-1H-pyrazol-4-yl)pyridin-4-yloxy)phenyl)urea]
